Laboratory results: patent US7589078B2, “Anti-viral nucleoside analogs and methods for treating viral infections, especially HIV infections” (Yale University, priority 2003, dated 2009)
Where two headings read alike, the source gives them in different places.

Columns and labels:
[1] = tested on: mtDNA content of CEM cells; assay: Mitochondrial DNA content in CEM cells (Southern blot); format: cell-based; conditions: for IC50: four days, read-out: Mitochondrial DNA Content ID50
Experimental: Mitochondrial DNA: The effect of nucleoside analogs on mtDNA content was assessed as described previously (2). […] Cells treated with drugs at various concentrations either as single agents or in combination were grown for four days. Cells were then harvested, treated with proteinase K and DNase free RNase. Extracts were applied to nylon membranes and hybridized with an mtDNA probe. After stripping the membrane the load was normalized by rehybridizing the membrane with an Alu probe. Blots were quantitated with a Molecular Dynamics personal densitometer SI with ImageQuaNT analysis software.

[2] = tested on: CEM cells; assay: Cellular toxicity in CEM cells (cell counts); conditions: for IC50: read-out: Cellular ID50
Experimental: The basic procedures are similar. The cells are seeded a low concentration, then serial dilutions of test compound are added. […] After 48 to 96 h incubation at 37° C. in a 5% CO2 humidified incubator the assay is ended. The drug treated samples are compared to the untreated controls. This is accomplished in suspension cell lines by counting cell numbers either with a hemocytometer or by using a Coulter Counter.
The numbers in parentheses represent the mean and standard deviations of percentage of untreated CEM control cells at the concentration indicated.

[3] = tested on: H-9 cells; assay: Toxicity in H-9 cells alone and in combination (Coulter Counter); format: cell-based; conditions: H-9 cells, 48 h
Source text: (§1) The basic procedures are similar.

[4] = tested on: HIV-1 strain IIIB; assay: Antiviral activity in MT-2 cells infected with HIV-1 strain IIIB (MTT); format: cell-based
Experimental: Determination of antiviral activity: Compounds were tested in MT-2 cells infected with HIV-1 strain IIIB essentially as described previously (31). […]. Calculations of the percent protection and isobologram combination studies are described (12).

[5] = biological target: T1, thymidine kinase (TK-1) (Homo sapiens, UniProt P04183); assay: Thymidine kinase assay with added nucleoside ([14C]-dThd to dTMP); conditions: [14C]-dThd 25 μM, added nucleoside 250 μM; compared to reactions with no additions
T1 sequence (P04183 1-234): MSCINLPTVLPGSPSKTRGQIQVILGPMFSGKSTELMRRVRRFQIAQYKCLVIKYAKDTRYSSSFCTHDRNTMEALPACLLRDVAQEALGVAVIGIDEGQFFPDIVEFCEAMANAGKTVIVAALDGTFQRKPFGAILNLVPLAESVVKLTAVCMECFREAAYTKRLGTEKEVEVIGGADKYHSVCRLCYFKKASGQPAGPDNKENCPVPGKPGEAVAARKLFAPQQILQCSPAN
Experimental: After two additional washes in ethanol, the discs were dried and placed in scintillation vials that contained 5 ml SafeScint Scintillation Cocktail (American Bioanalytical, Natick, Mass.). The amount of radioactivity, which represents the amount of dTMP formed, was quantitated in a Beckman LS5000TD Scintillation Counter (Beckman Instruments Inc., Palo Alto, Calif.).

[6] = tested on: HIV-1 strain IIIB; conditions: MT-2 cells; EC50 reported previously (17); read-out: EC50: effective concentration required to achieve 50% protection from HIV in MT-2 cells; cited from earlier work
[7] = tested on: MT-2 cells; assay: Cellular toxicity, MT-2 cell growth; format: cell-based; conditions: MT-2 cells; read-out: ID50: concentration required to inhibit MT-2 cell growth by 50%
Source text: as §1

[8] = biological target: T1, thymidine kinase (TK-1); assay: Monophosphorylation of analogs by thymidine kinase; format: biochemical; parameters: phosphorylated by thymidine kinase (TK-1) from CEM cells; endogenous in cells; conditions: for Relative Vmax: 250 μM dThd or analog, 2.4 mM ATP, 0.07 unit TK-1, 37° C., 285 min, dThd = 100
Experimental: Monophosphorylation of Analogs by Thymidine Kinase: All the analogs were tested for their ability to be phosphorylated by thymidine kinase (TK-1) from CEM cells. This enzyme was purified by an affinity column technique developed in this laboratory (7). […] At the end of the incubation time the reaction was stopped by the addition of 3 parts cold HPLC grade methanol. After incubating on ice for at least 10 min. the methanol insoluble material is precipitated by centrifugation and the methanol soluble supernatants were placed into clean microfuge tubes. These samples were brought to dryness in a Speedvac Centrifuge. The samples were dissolved in water and separated on a Shimatzu HPLC model SCL 10Avp using a gradient of water to 300 mM potassium phosphate and a Whatman 10/25 particle SAX column. Km and relative Vmax studies were done in a similar fashion, using the same mixture and different amounts of substrate and enzyme.

[9] = biological target: T2, thymidine phosphorylase (TP) (Homo sapiens, UniProt P19971); assay: Thymidine phosphorylase assay; format: in vitro ADME; conditions: partially purified TP from human liver, 100 μM nucleoside, 37° C., FIG. 11
T2 construct: using a partially purified prepartion of human liver extract (28) as a source of the thymidine phosphorylase (TP); from tissue; host or cells: human liver extract, partially purified
T2 sequence (P19971 11-482): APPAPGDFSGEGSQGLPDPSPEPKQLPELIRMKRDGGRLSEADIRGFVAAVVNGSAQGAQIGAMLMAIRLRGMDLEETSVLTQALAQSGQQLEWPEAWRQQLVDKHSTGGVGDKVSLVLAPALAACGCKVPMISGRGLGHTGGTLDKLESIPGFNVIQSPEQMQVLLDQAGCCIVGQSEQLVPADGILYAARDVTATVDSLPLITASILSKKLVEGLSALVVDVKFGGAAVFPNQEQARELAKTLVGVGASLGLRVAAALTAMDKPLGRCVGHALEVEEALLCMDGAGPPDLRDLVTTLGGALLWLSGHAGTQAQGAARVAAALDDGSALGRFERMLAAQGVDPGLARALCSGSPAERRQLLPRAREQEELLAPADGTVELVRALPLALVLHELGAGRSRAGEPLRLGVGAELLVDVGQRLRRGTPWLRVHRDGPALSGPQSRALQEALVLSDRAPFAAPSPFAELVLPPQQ
Experimental: Thymidine Phosphorylase Assays: Nucleoside analogs (100 μM) were incubated in 75 mM potassium phosphate buffer pH 7.3 at 37° C. using a partially purified prepartion of human liver extract (28) as a source of the thymidine phosphorylase (TP). After incubation, the reaction was stopped by the addition of trichloroacetic acid to a final concentration of 15%. The samples were then incubated on ice. After the acid insoluble components were removed by centrifugation, the supernatant was neutralized by two extractions with one half volume of trioctylamine/freon (45:55). The aqueous supernatants were examined by HPLC using the Beckman ODS column method, as described in Acid Stability Studies.

[10] = Human immunodeficiency virus 1, MT2, MT-2/HIV IIIB system, FIG. 10, read-out: EC50 for single agents (isobologram study)
[11] = CEM cells, four day cell growth, cell counts vs untreated controls
[12] = MT-2 cells, HIV-1 IIIB, read-out: EC50: effective concentration required to achieve 50% protection from HIV in MT-2 cells

| SMILES | Percent of Activity [5] [%] | Cell count, percentage of untreated CEM control cells ([2]; CEM cells, at 100 μM) [%] | IC50 [2, 11] [µM] | IC50 [7] [µM] | Relative Vmax [8] | EC50 [4, 12] [µM] | other results |
| --- | --- | --- | --- | --- | --- | --- | --- |
| Nc1ccn([C@@H]2CS[C@H](CO)O2)c(=O)n1 [3TC, β-L-2′,3′-dideoxy-3′-thiacytidine, reference compound] | – | – | – | – | – | – | IC50 ([1]; Homo sapiens, CCRF-CEM, 96 h): > 200 µM; Mitochondrial DNA content, percentage of untreated CEM control cells ([1]; at 200 μM): 114 ± 2%; Cell count, percentage of untreated CEM control cells ([2]; CEM cells, at 200 μM): 77 ± 28%; IC50 ([2]; Homo sapiens, CCRF-CEM, 96 h): > 200 µM; Percent of Untreated Controls ([3]; 5 μM 3TC alone): 99 ± 3%; Percent of Untreated Controls ([3]; 20 μM 3TC alone): 94 ± 3%; Percent of Untreated Controls ([3]; 100 μM 3TC alone): 108 ± 12%; EC50 [4, 10]: 1 µM |
| Nc1nc(=O)n([C@@H]2C=C[C@H](CO)O2)cc1F [LFd4C, β-L-2′,3′-dideoxy-2′,3′-didehydro-5-fluorocytidine, reference compound] | – | – | – | – | – | – | Percent of Untreated Controls ([3]; 5 μM LFd4C alone): 73 ± 9%; Percent of Untreated Controls ([3]; 10 μM LFd4C alone): 56 ± 4%; EC50 [4, 10]: 0.18 µM |
| C=C[C@@]1(CO)C=C[C@H](n2cc(C)c(=O)[nH]c2=O)O1 [4′-vinyl D4T] | 99.5 ± 6.9 | 78 ± 21 | > 100 | > 100 | 1.8 ± 0.5 | – | EC50 [6]: > 100 µM; Rate of conversion to the monophosphate form ([8]; purified human TK-1): approximately 2% of dThd |
| Cc1cn([C@H]2C=C[C@@](C#CCl)(CO)O2)c(=O)[nH]c1=O [4′-ethynylchloro D4T] | 53.2 ± 9.2 | – | 62.6 ± 10 | 63.3 ± 20.8 | 3.9 ± 1.0 | > 100 | – |
| Cc1cn([C@H]2C=C[C@@](C#N)(CO)O2)c(=O)[nH]c1=O [4′-cyano D4T] | 71.8 ± 8.2 | 60 ± 1 | > 100 | > 100 | 1.1 ± 0.2 | 7 ± 2.6 | Mitochondrial DNA content, percentage of untreated CEM control cells ([1]; at 100 μM): 264 ± 23%; IC50 [1]: > 100 µM; Anti-HIV activity compared with D4T ([4]; MT-2/IIIB anti HIV-1 system, FIG. 8): less active than D4T |
| C=CC[C@@]1(CO)C=C[C@H](n2cc(C)c(=O)[nH]c2=O)O1 [4′-allyl D4T] | 110.8 ± 9.0 | – | > 100 | > 100 | 0.4 ± 0.2 | > 100 | – |
| Cc1cn([C@H]2C[C@H](N=[N+]=[N-])[C@@H](CO)O2)c(=O)[nH]c1=O [AZT, 3′-Azido-3′-deoxythymidine, reference compound] | 5.4 ± 2.3 | – | – | – | 55.5 ± 9.7 | – | Rate of phosphorylation by TK-1, in words ([8]; purified human TK-1): half as fast as dThd |
| Cc1cn([C@H]2C=C[C@@](C)(CO)O2)c(=O)[nH]c1=O [4′-methyl D4T] | 103.8 ± 9.9 | 114 ± 2 | > 100 | > 100 | 1.6 ± 0.5 | – | EC50 [6]: > 100 µM; Rate of conversion to the monophosphate form ([8]; purified human TK-1): approximately 2% of dThd |
| Cc1cn([C@H]2C[C@H](O)[C@@H](CO)O2)c(=O)[nH]c1=O [dThd] | – | – | – | – | – | – | Break down by thymidine phosphorylase [9]: broke down very quickly |
| Nc1ccn([C@H]2CC[C@@H](CO)O2)c(=O)n1 [ddC, 2′,3′-dideoxycytidine, reference compound] | – | – | – | – | – | – | IC50 ([1]; Homo sapiens, CCRF-CEM, 96 h): 0.15 ± 0.12 µM; IC50 ([2]; Homo sapiens, CCRF-CEM, 96 h): 5.5 ± 1.8 µM |
